According to publication PMC2962730 (Journal of neurochemistry, 2010):
Changes are numbered by the printed parent chain.

Columns and labels:
hVAChT Y60A = biological target: T1, hVAChT Y60A (Homo sapiens, UniProt Q16572, Y60A); experiment: ACh equilibrium binding by competition against [3H]vesamicol
T1 sequence (Q16572 1-532 Y60A): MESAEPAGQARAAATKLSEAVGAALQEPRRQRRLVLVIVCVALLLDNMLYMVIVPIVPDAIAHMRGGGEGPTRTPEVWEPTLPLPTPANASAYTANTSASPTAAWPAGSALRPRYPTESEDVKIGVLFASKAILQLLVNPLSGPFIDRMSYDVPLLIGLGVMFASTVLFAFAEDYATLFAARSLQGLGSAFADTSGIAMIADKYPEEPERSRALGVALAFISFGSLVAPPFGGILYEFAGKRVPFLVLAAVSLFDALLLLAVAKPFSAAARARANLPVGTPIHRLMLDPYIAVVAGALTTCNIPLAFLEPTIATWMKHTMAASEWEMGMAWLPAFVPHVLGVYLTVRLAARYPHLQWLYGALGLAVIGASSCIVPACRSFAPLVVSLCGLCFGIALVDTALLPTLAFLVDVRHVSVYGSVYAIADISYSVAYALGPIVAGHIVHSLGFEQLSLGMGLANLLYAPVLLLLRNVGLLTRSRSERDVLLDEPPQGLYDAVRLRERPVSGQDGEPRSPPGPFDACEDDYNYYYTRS

hVAChT C391A = biological target: T2, hVAChT C391A (Homo sapiens, UniProt Q16572, C391A); experiment: [3H]ACh transport; assay type: biochemical
T2 sequence (Q16572 1-532 C391A): T1 sequence (Q16572 1-532 Y60A) with A60Y, C391A

hVAChT C388A = biological target: T3, hVAChT C388A (Homo sapiens, UniProt Q16572, C388A); experiment: [3H]ACh transport; assay type: biochemical
T3 sequence (Q16572 1-532 C388A): T1 sequence (Q16572 1-532 Y60A) with A60Y, C388A

hVAChT W325F = biological target: T4, hVAChT W325F (Homo sapiens, UniProt Q16572, W325F); experiment: ACh equilibrium binding by competition against [3H]vesamicol
T4 sequence (Q16572 1-532 W325F): T1 sequence (Q16572 1-532 Y60A) with A60Y, W325F

hVAChT A330V = biological target: T5, hVAChT A330V (Homo sapiens, UniProt Q16572, A330V); experiment: as above
T5 sequence (Q16572 1-532 A330V): T1 sequence (Q16572 1-532 Y60A) with A60Y, A330V

- Kd (hVAChT Y60A): 8.2 ± 0.7 mM
- FHA, fraction of the ACh sites that have high affinity (hVAChT Y60A; Y60A hVAChT, pH 7.4): 0.92 ± 0.02
- ACh transport faster than wild-type (hVAChT C391A; C391A hVAChT vs wild-type): about 2 times
- Vmax/Bmax, ACh transport normalized to Bmax (hVAChT C391A; C391A hVAChT, pH 7.4): 15 ± 2 min⁻¹
- Km (hVAChT C391A; read-out: KM, Michaelis-Menten constant for ACh transport, C391A hVAChT, pH 7.4): 1800 ± 300 µM
- Vmax/Bmax, ACh transport normalized to Bmax (hVAChT C388A; pH 7.4): 12 ± 1 min⁻¹
- Km (hVAChT C388A; read-out: KM, Michaelis-Menten constant for ACh transport, pH 7.4): 2300 ± 500 µM
- Kd (hVAChT W325F): 7.3 ± 1.6 mM
- FHA, fraction of the ACh sites that have high affinity (hVAChT W325F; W325F hVAChT, pH 7.4): 0.74 ± 0.09
- Kd (hVAChT A330V): 12 ± 5 mM
- decrease in the fraction of high-affinity binding by ACh (hVAChT A330V; A330V hVAChT vs wild-type): 2 fold
- FHA, fraction of the ACh sites that have high affinity (hVAChT A330V; A330V hVAChT, pH 7.4): 0.44 ± 0.11
SMILES: CC(=O)OCC[N+](C)(C)C [ACh, acetylcholine]
